Values after ≈ are worked out from the molar mass of the structure shown. Read-outs that look alike come from different tables or passages of the source.
Assays:
[1] = tested on: Staphylococcus aureus strains (MRSA, hVISA, VISA, VRSA, quinolone-resistant MRSA); test: MIC by agar dilution against Staphylococcal strains (MRSA, hVISA, VISA, VRSA, quinolone-resistant MRSA); assay type: cell-based; settings: Staphylococcus aureus
Procedure: Compound 1 was tested for its inhibitory effect against 26 Methicillin-resistant Staphylococcus aureus (MRSA) strains, 2 hetero-Vancomycin intermediate Staphylococcus aureus (hVISA) strains, 24 Vancomycin-intermediate Staphylococcus aureus (VISA) strains, 5 Vancomycin-resistant Staphylococcus aureus (VRSA) strains, and 31 quinolone-resistant Vancomycin-susceptibale MRSA strains with defined mutations in QRDR. These mutations were determined by sequencing analysis of the QRDR (gyrA, gyrB, grlA, and grlB). Efflux testing was performed by the reserpine method (Brenwald, et al., Antimicrob. Agents Chemother. 1998, 42: 2032-2035).

H. pylori isolates = test: MIC by agar dilution against 200 H. pylori isolates (Taiwan); assay type: cell-based, Helicobacter pylori; settings: for share of isolates resistant: 200 H. pylori isolates, resistance: amoxicillin MICs≧0.5, clarithromycin ≧1, metronidazole ≧8, ciprofloxacin ≧1, levofloxacin ≧1 μg/mL
Procedure: MICs were determined using the agar dilution methods recommended by the Clinical and Laboratory Standards Institute (CLSI-M100-S18).

[2] = tested on: Methicillin-resistant Staphylococcus aureus (MRSA) isolates; test: MIC by broth microdilution (CLSI) against CAN-ICU MRSA isolates; assay type: cell-based; settings: Staphylococcus aureus
From the text: MRSA isolates (n=193) were obtained as part of the Canadian National Intensive Care Unit (CAN-ICU) Study. 19 medical centers from all regions of Canada with active ICUs participated in the CAN-ICU study included. They were requested to only obtain “clinically significant” specimens from patients with a presumed infectious disease. Surveillance swabs, eye, ear, nose and throat swabs were excluded. Anaerobic organisms and fungal organisms were also excluded.
From September 2005-June 2006 (inclusive), each center collected a maximum of 300 consecutive pathogens isolated from blood, urine, tissue/wound, and respiratory specimens (one pathogen per cultured site per patient) of ICU patients. These isolates were shipped to the reference laboratory (Health Sciences Centre, Winnipeg, Canada) on Amies charcoal swabs, subcultured in appropriate media, and stocked in skim milk at −80° C.
All isolates underwent mecA PCR, as well as molecular characterization (including PVL analysis and fingerprinting), as previously described, to assess whether they were community-associated or healthcare-associated (Christianson et al., J Clin Microbiol. 2007, 45 (6): 1904-11; Mulvey et al., J Clin. Microbiol. 2001, 39(10): 3481-5; Mulvey et al., Emerg Infect Dis. 2005,11(6): 844-50; Oliveira et al., Antimicrob Agents Chemother. 2002, 46(7): 2155-61). The isolates were also subtyped using pulsed-field gel electrophoresis (PFGE) following the Canadian standardized protocol as previously described (Mulvey et al., J Clin Microbiol. 2001, 39(10): 3481-5). Their PFGE fingerprints thus obtained were analyzed with BioNumerics v3.5 (Applied Maths St. Marten-Latem, Belgium) using a position tolerance of 1.0 and an optimization of 1.0. Strain relatedness was determined as previously described (Tenover et al., 1995). The fingerprints of the isolates were compared to the national MRSA fingerprint database and were grouped into one of 10 Canadian epidemic MRSA (CMRSA-1, CMRSA-2, etc) as previously described (Mulvey et al., Emerg Infect Dis. 2005,11(6):844-50).
Compound 1 and other antibiotics were tested for their inhibitory activity against the MRSA isolates using the broth microdilution guidelines as stipulated by the Clinical and Laboratory Standards Institute.

[3] = hVISA(2) + VISA (24) + VRSA (5)
[4] = read-out: MIC Range, Quinolone-resistant MRSA (31)
[5] = Helicobacter pylori, 200 isolates of H. pylori

COc1c(N2C[C@@H]3CCCN[C@@H]3C2)c(F)cc2c(=O)c(C(=O)O)cn(C3CC3)c12 [Moxifloxacin]
MIC50 ([1]; MRSA (26)): 0.06 µg/mL (≈ 0.149 µM) | MIC90 ([1]; MRSA (26)): 0.06 µg/mL (≈ 0.149 µM) | MIC50 ([1]; Quinolone-resistant MRSA (31)): 4 µg/mL (≈ 9.96 µM) | MIC90 ([1]; Quinolone-resistant MRSA (31)): 8 µg/mL (≈ 19.9 µM) | MIC50 [1, 3]: 4 µg/mL | MIC90 [1, 3]: 8 µg/mL | MIC ([1]; read-out: MIC Range, MRSA (26)): 0.03 to 0.25 µg/mL (≈ 0.0747 to 0.623 µM) | MIC [1, 4]: 1 to 8 µg/mL (≈ 2.49 to 19.9 µM) | MIC ([1]; read-out: MIC Range, hVISA(2) + VISA (24) + VRSA (5)): 0.06 to 8 µg/mL | MIC50 (H. pylori isolates; [5]): 250 µg/mL (≈ 623 µM) | MIC90 (H. pylori isolates; [5]): 500 µg/mL (≈ 1250 µM)

CN[C@H](CC(C)C)C(=O)N[C@H]1C(=O)N[C@@H](CC(N)=O)C(=O)N[C@H]2C(=O)N[C@H]3C(=O)N[C@H](C(=O)N[C@H](C(=O)O)c4cc(O)cc(O)c4-c4cc3ccc4O)[C@H](O)c3ccc(c(Cl)c3)Oc3cc2cc(c3O[C@@H]2O[C@H](CO)[C@@H](O)[C@H](O)[C@H]2O[C@H]2C[C@](C)(N)[C@H](O)[C@H](C)O2)Oc2ccc(cc2Cl)[C@H]1O [Vancomycin]
MIC50 ([2]; MRSA): 1 µg/mL (≈ 0.69 µM) | MIC90 ([2]; MRSA): 1 µg/mL (≈ 0.69 µM) | MIC50 ([2]; MRSA / USA100): 1 µg/mL (≈ 0.69 µM) | MIC90 ([2]; MRSA / USA100): 1 µg/mL (≈ 0.69 µM) | MIC50 ([2]; MRSA / USA200): 0.5 µg/mL (≈ 0.345 µM) | MIC90 ([2]; MRSA / USA200): 0.5 µg/mL (≈ 0.345 µM) | MIC50 ([2]; MRSA / USA300): 0.5 µg/mL (≈ 0.345 µM) | MIC90 ([2]; MRSA / USA300): 0.5 µg/mL (≈ 0.345 µM) | MIC50 ([2]; MRSA / USA400): 1 µg/mL (≈ 0.69 µM) | MIC90 ([2]; MRSA / USA400): 1 µg/mL (≈ 0.69 µM) | MIC50 ([2]; MRSA / USA600): 1 µg/mL (≈ 0.69 µM) | MIC90 ([2]; MRSA / USA600): 1 µg/mL (≈ 0.69 µM) | MIC ([2]; MRSA, read-out: MIC Range Max): 1 µg/mL (≈ 0.69 µM) | MIC ([2]; MRSA, read-out: MIC Range Min): 0.5 µg/mL (≈ 0.345 µM) | MIC50 ([1]; MRSA (26)): 1 µg/mL (≈ 0.69 µM) | MIC90 ([1]; MRSA (26)): 1 µg/mL (≈ 0.69 µM) | MIC50 ([1]; Quinolone-resistant MRSA (31)): 1 µg/mL (≈ 0.69 µM) | MIC90 ([1]; Quinolone-resistant MRSA (31)): 1 µg/mL (≈ 0.69 µM) | MIC50 [1, 3]: 4 µg/mL | MIC90 [1, 3]: 32 µg/mL | MIC ([1]; read-out: MIC Range, MRSA (26)): 0.5 to 1 µg/mL (≈ 0.345 to 0.69 µM) | MIC [1, 4]: 0.5 to 2 µg/mL (≈ 0.345 to 1.38 µM)

CC1(C)S[C@@H]2[C@H](NC(=O)[C@H](N)c3ccc(O)cc3)C(=O)N2[C@H]1C(=O)O [amoxicillin]
share of isolates resistant (H. pylori isolates): 2%

Cc1ncc([N+](=O)[O-])n1CCO [metronidazole]
share of isolates resistant (H. pylori isolates): 29%
